Key:
HCV-RNA replication = test system: HCV-RNA replication; set-up: method as in PMID 21620801, PMID 16875675; details: cited from earlier work
[1] = test system: HCV-RNA replication in ORL8 cells; experiment: Effect of VE on anti-HCV activity, ORL8 RL assay; format: cell-based, hepatitis C virus; details: 72 hrs
Protocol: After treatment, an RL assay of harvested ORL8 cell samples was performed. (B, D, and F) The ratio of RL activity in the presence of VE to the RL activity in the absence of VE. The above ratio was calculated from the data of (A, C, and E). […] (G) Western blot analysis was performed as described in Fig. 1B.
(§1) The ORL8 cells were treated with N-89 or IFN-α, and then RL assays were performed at 2 to 72 hrs after the treatment. The relative value (%) calculated at each time point, when the luciferase activity of non-treated cells at 24 hrs was assigned as 100%, is shown. Data are expressed as the means±standard deviation of triplicate assays. […] To evaluate this possibility, we examined the effect of VE on N-89 at the EC90 level in the ORL8 assay.

[2] = test system: genome-length HCV-RNA (O strain of genotype 1b) replication in Li23-derived ORL8 cells; experiment: ORL8 RL assay; format: cell-based, hepatitis C virus; details: ORL8 cells
Protocol: RSc and D7 cells were derived from the cell lines HuH-7 and Li23, respectively, were cultured as described previously, [29]. HuH-7-derived OR6 [13], AH1R [30], and 1B-4R [Ikeda et al., submitted] cells harboring genome-length HCV-RNA and HuH-7-derived polyclonal sOR [31], and RSc-JRN/35B [Ikeda et al., submitted] cells harboring an HCV subgenomic replicon were cultured with medium in the presence of G418 (0.3 mg/ml; Geneticin, Invitrogen, Carlsbad, CA) as described previously. Li23-derived ORL8 [20], ORL11 [20], 1B-4RL [Ikeda et al., submitted], and KAH5RL [Ikeda et al., submitted] cells harboring genome-length HCV-RNA were maintained with medium in the presence of G418 (0.3 mg/ml) as described previously. Li23-derived polyclonal sORL8 and sORL11 cells harboring an HCV replicon, which were established by the transfection of ORN/3-5B/QR,KE,SR RNA into the cured OL8 and OL11 cells, respectively, were also cultured with medium in the presence of G418 (0.3 mg/ml) as described previously. […] Therefore, when HCV-RNA is excluded from the cells or when its level is decreased, the cells are killed in the presence of G418.
RL assay was performed as described previously, [24]. Briefly, the cells were plated onto 24-well plates (2×10^4 cells per well) in triplicate and then treated with each reagent at several concentrations for 72 hrs. After treatment, the cells were subjected to luciferase assay using the RL assay system (Promega, Madison, WI). The experiments were performed at least in triplicate. From the assay results, the 50% effective concentration (EC50) of each reagent was determined.
The SI value of each reagent was determined by dividing the CC50 value by the EC50 value.

[3] = test system: HCV-RNA replication in ORL8 cells; experiment: Comparative time course RL assay in ORL8 cells; format: cell-based, hepatitis C virus; details: 1 IU/ml
Protocol: We next performed a time course assay (2 to 72 hrs after treatment) in the case of ORL8 cells treated with N-89 (0.1 µM or 1 µM) or IFN-α (1 IU/ml; corresponding to approximately EC80). ORL8 cells treated with IFN-α (1 IU/ml) and N-89 (1 µM) had almost the same anti-HCV kinetics over the first […] after treatment (upper panel of Fig. 4); however, within the first 12 hrs after treatment N-89-treated ORL8 cells had more rapid anti-HCV kinetics than did the IFN-α-treated cells (lower panel of Fig. 4).
as §1, with “Figure 4 The anti-HCV action of N-89 was faster than that of IFN-α. The ORL8” for “The ORL8”, “ORL8 assay. […] Similar results were obtained by using N-251 (Fig. 5C and D). […] However, an antimalarial drug, artemisinin, was hardly influenced by co-treatment with VE (Fig. 5E). The value (1.9) of artemisinin was almost the same as that (3.5 or 2.5) of IFN-α or the control, respectively (Fig. 5F).” for “ORL8 assay.”

[4] = test system: genome-length HCV-RNA (O strain of genotype 1b) replication in HuH-7-derived OR6 cells; set-up: method as in PMID 21320556; details: 10 µM, OR6 assay; cited from earlier work
[5] = test system: genome-length HCV-RNA (O strain of genotype 1b) replication in Li23-derived ORL8 cells; set-up: method as in PMID 21320556; details: 10 µM, ORL8 assay; cited from earlier work
[6] = test system: genome-length HCV-RNA (O strain of genotype 1b) replication in Li23-derived ORL11 cells; set-up: method as in PMID 21320556; details: 10 µM, ORL11 assay; cited from earlier work
[7] = reagent at expected EC90, Fig. 5F (control 2.5)

Row | Compound | anti-HCV activity (HCV-RNA replication) | VE 10μM(+) / VE 10μM(-) ratio of RL activity [1, 7] | EC80 [2] [IU/ml] | VE 10μM(+) / VE 10μM(-) ratio of RL activity ([1]; reagent at expected EC90, Fig. 5B (control 3.0)) | VE 10μM(+) / VE 10μM(-) ratio of RL activity ([1]; reagent at expected EC90, Fig. 5D (control 2.3)) | time after treatment at which a decrease of RL activity began to be seen [3] [h] | inhibition of HCV-RNA replication [4] | inhibition of HCV-RNA replication [5] | inhibition of HCV-RNA replication [6]
1 | C[C@@H]1CC[C@H]2[C@@H](C)C(=O)O[C@@H]3O[C@@]4(C)CC[C@@H]1[C@]32OO4 [Artemisinin, reference compound] | weak anti-HCV activity | 1.9 |  |  |  |  |  |  | 
2 | IFN-α |  | 3.5 | ~1 | 3.2 | 4.3 | 12 |  |  | 
3 | NC(=O)c1ncn([C@@H]2O[C@H](CO)[C@@H](O)[C@H]2O)n1 [RBV, ribavirin] |  |  |  |  |  |  | not in the OR6 assay | efficiently inhibited HCV-RNA replication | efficiently inhibited HCV-RNA replication
